This assay concerns the target T1, GMP-140 (Homo sapiens, UniProt P16109).
T1 construct: from tissue; host or cells: human platelets (outdated platelet packs from a blood bank)
T1 sequence (P16109 42-830): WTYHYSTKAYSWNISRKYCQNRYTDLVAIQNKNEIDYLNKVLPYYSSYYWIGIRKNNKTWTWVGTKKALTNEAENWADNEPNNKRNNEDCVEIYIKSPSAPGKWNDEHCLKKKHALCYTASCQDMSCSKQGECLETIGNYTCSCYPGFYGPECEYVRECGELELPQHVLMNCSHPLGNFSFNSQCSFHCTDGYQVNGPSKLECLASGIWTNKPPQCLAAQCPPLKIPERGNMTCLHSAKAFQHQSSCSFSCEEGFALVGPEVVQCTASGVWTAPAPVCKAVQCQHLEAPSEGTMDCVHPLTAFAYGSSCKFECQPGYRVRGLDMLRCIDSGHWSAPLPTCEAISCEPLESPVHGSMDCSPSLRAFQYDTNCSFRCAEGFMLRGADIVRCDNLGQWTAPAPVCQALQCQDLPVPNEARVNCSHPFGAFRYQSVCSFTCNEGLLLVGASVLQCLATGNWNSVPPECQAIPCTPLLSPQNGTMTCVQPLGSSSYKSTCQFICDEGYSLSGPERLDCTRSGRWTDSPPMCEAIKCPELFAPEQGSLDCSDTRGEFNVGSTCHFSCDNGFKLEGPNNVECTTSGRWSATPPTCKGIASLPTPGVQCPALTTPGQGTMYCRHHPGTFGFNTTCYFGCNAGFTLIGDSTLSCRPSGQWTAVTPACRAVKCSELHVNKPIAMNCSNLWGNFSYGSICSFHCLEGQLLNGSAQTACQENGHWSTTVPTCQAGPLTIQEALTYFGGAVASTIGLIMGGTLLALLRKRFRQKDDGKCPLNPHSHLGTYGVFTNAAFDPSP
Description: Inhibition of neutrophil binding to GMP-140 coated wells. Format: cell-based. Particulars: read-out: PERCENT INHIBITION OF NEUTROPHIL BINDING. The source says: Peptides can be screened for their ability to inhibit adhesion to cells, for example, neutrophil adhesion to purified GMP-140 immobilized on plastic wells, using the assay described by Geng, et al., Nature 343, 757-760 (1990).
Human neutrophils are isolated from heparinized whole blood by density gradient centrifugation on Mono-Poly resolving media, Flow Laboratories. Neutrophil suspensions are greater than 98% pure and greater than 95% viable by trypan blue exclusion. For adhesion assays, neutrophils are suspended at a concentration of 2×10^6 cells/ml in Hanks' balanced salt solution containing 1.26 mM Ca^2+ and 0.81 mM Mg^2+ (HBSS, Gibco) with 5 mg/ml human serum albumin (HBSS/HSA). Adhesion assays are conducted in triplicate in 96-well microtiter plates, Corning, incubated at 4° C. overnight with 50 microliters of various protein solutions.
GMP-140 is isolated from human platelet lysates by immunoaffinity chromatography on antibody S12-Sepharose™ and ion-exchange chromatography on a Mono-Q™ column (FLPC, Pharmacia Fine Chemicals), as follows.
Outdated human platelet packs (100 units) obtained from a blood bank and stored at 4° C. are pooled, adjusted to 5 mM EDTA at pH 7.5, centrifuged at 4,000 rpm for 30 min in 1 liter bottles, then washed three times with 1 liter of 0.1 M NaCl, 20 mM Tris pH 7.5 (TBS), 5 mM EDTA, 5 mM benzamidine.
The pellets are then resuspended in a minimum amount of wash buffer and made 1 mM in DIFP, then frozen in 50 ml screwtop tubes at -80° C. The frozen platelets are thawed and resuspended in 50 ml TBS, 5 mM benzamidine, 5 mM EDTA pH 7.5, 100 µM leupeptin. The suspension is frozen and thawed two times in a dry ice-acetone bath using a 600 ml lyophilizing flask, then homogenized in a glass/teflon mortar and pestle and made 1 mM in DIFP. The NaCl concentration is adjusted to 0.5 M with a stock solution of 4 M NaCl. […]
Bound GMP-140 is eluted from the S12 Affigel with 100 ml of 80% ethylene glycol, 1 mM MES pH 6.0, 0.01% Lubrol PX. Peak fractions with absorbance at 280 nm are pooled. […]

No end group written: not given here.

Turning to “RKEAEIWTDV-NH2 [RKEAEIWTDV-NH2, Arginyl-lysyl-glutamyl-alanyl-glutamyl-isoleucyl-tryptophyl-threonyl-aspartyl-valine amide]”, the inhibition at 100 µM (peptide concentration 0.10 Mm) was 19%. For the same substance, where the note is “peptide concentration 0.30 Mm”, the inhibition at 300 µM came to 63%. Under “peptide concentration 1.0 Mm”, the inhibition at 1000 µM was 67%.

One may read the inhibition as the change of the read-out against control, counted positive when it falls.

The values are drawn from patent US6111065A, “Peptide inhibitors of inflammation mediated by selectins” (Centocor, Inc., priority 1994, dated 2000).
